One series concerns the target T1, MSA (Homo sapiens, UniProt P02768).
T1 construct: purchased Green Cross Corp., Korea
Put plainly: TLC measurement of pigment not coupled to MSA. Type of series: binding. On the procedure:
2 ml of 200 mg/mL MSA was added thereto to prepare the reaction mixture in total volume of 3 mL. […]
Upon completion of the reaction, the amount of the pigment not coupled to MSA was measured by performing thin layer chromatography (TLC) with the pigment-coupled MSA hourly. At this time, methanol and methylene chloride (MeOH:MeCl2) mixture was used as a solvent and the results were quantitatively analyzed by multi-gauge 3.0 software using LAS3000 (Fuji Film).

A short description of series [1]: Absorption peak and molecular extinction coefficient of pigment-coupled MSA. Type of series: physicochemical. Conditions: for Wavelength (absorption peak): scan 350 nm to 850 nm. The protocol: The pigment-coupled MSA solution was loaded in a 96-well plate, which was scanned with visible light ranging between 350 nm and 850 nm to measure the absorbance at the peak of absorption spectrum using Varioskan Flash (Thermo Fisher Scientific Inc., Finland) spectrometer. The molecular extinction coefficient was measured by calculating the absorbance per 1 cm length according to Beer-Lambert law.

T1 sequence (P02768 25-609): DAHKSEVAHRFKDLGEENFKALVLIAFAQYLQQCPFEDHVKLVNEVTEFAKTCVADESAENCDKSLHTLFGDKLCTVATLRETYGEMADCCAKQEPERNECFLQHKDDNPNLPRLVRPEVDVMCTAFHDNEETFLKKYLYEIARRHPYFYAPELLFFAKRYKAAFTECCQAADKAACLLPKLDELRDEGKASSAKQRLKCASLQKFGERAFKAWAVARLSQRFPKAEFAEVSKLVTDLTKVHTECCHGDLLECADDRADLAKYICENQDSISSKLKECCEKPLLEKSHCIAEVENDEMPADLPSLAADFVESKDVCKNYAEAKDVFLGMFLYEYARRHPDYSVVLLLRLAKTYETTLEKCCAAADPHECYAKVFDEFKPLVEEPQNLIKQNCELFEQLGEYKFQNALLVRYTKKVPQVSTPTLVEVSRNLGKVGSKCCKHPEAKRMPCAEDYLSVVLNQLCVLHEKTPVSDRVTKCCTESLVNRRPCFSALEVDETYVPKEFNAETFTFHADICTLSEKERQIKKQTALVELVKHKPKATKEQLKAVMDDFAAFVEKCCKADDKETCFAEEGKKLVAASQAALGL

As for brilliant blue R, the “Percentage of pigment not coupled to MSA” value at MSA (10 min) is 7.8 ± 0.5%; on MSA (30 min) it was 7.6 ± 0.8%; on MSA (1 hr), 7.7 ± 0.9%; at MSA (2 hr) it was 6.3 ± 0.5%; on MSA (6 hr), 5.9 ± 0.6%; on MSA (24 hr), 3.8 ± 0.6%.
In the case of nitrazine yellow [NY], the “Percentage of pigment not coupled to MSA” value came out at 9.6 ± 0.5% at MSA (10 min); 8.4 ± 0.5% on MSA (30 min); 7.2 ± 0.4% on MSA (1 hr); 6.4 ± 0.4% at MSA (2 hr); 0.4 ± 0.6% on MSA (6 hr); 0.1 ± 0.2% on MSA (24 hr). The “Wavelength (absorption peak)” value in series [1] is 560 nm.
`Nc1c(N=Nc2ccc([N+](=O)[O-])cc2)c(S(=O)(=O)[O-])cc2cc(S(=O)(=O)[O-])c(N=Nc3ccccc3)c(O)c12.[Na+].[Na+]` [NBB, naphthol blue black]: the “Percentage of pigment not coupled to MSA” value on MSA (10 min) came out at 0.0 ± 0.0%; on MSA (30 min), 0.0 ± 0.0%; on MSA (1 hr), 0.0 ± 0.0%; on MSA (2 hr), 0.0 ± 0.0%; on MSA (6 hr) it was 0.2 ± 0.3%; on MSA (24 hr), 0.0 ± 0.0%. Besides, the “Binding of pigment to MSA (in words)” value on MSA (Table 2) is “bind stably and strongly to MSA and high”; at MSA (Table 2, listed as naphthol blue black) it was “stably bound”. In addition, the “ε (molecular extinction coefficient)” value in series [1] (at absorption peak, per 1 cm, Beer-Lambert law) is recorded as 62222. The “Wavelength (absorption peak)” value in series [1] was 620 nm.

The values are drawn from patent publication US20200009275A1, “PIGMENT-COUPLED MANNOSYL SERUM ALBUMIN COMPLEX AND LYMPH NODE-PROBING COMPOSITION COMPRISING SAME” (priority 2017, published 2020).
